Data taken from patent US10508104B2, “6-hydroxy-5-(phenyl/heteroarylsulfonyl)pyrimidin-4(1H)-one as APJ agonists” (Bristol-Myers Squibb Company, priority 2016, dated 2019).

biological target: human APJ receptor (Homo sapiens (Human), UniProt P35414); test: Intracellular cAMP accumulation assay (APJ hcAMP, HTRF); assay type: cell-based; settings: HEK293 cells stably expressing human APJ receptor; inhibition of forskolin-mediated cAMP production; read-out: Human APJ cAMP EC50 Potency range
Summary of the method: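 HEK293 cells stably expressing human APJ, 5,000 per well, incubated 30 min at rt with compound, […] and 2 μM forskolin. cAMP measured by HTRF against a cAMP standard curve as inhibition of forskolin-driven production. EC50 from variable-slope sigmoidal fit.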

human APJ receptor, sequence (P35414 whole entry): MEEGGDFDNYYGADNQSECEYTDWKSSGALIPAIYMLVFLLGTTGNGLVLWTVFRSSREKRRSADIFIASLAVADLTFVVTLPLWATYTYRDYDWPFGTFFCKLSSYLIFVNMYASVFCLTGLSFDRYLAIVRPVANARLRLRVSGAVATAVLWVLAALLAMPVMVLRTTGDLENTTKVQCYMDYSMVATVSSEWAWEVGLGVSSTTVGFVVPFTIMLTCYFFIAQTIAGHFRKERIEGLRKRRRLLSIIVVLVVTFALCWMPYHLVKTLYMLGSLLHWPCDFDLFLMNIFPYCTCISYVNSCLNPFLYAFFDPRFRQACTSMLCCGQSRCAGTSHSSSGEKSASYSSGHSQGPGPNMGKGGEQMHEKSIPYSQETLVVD

Row | EC50 [nM] | Compound
1 | 100 to 300 | CCCCc1nc(=O)c(S(=O)(=O)c2ccc(Br)cc2)c(O)n1[C@@H](C)c1ccccc1 [Example 118, (S)-5-((4-Bromophenyl)sulfonyl)-2-butyl-6-hydroxy-1-(1-phenylethyl)pyrimidin-4(1H)-one]
2 | 0.01 to 10 | CCCCc1nc(=O)c(S(=O)(=O)c2ccc(-c3cncc(F)c3)cc2)c(O)n1[C@@H](C)c1ccccc1 [Example 128, (S)-2-Butyl-5-((4-(5-fluoropyridin-3-yl)phenyl)sulfonyl)-6-hydroxy-1-(1-phenylethyl)pyrimidin-4(1H)-one]

same assay, conditions: human APJ, intracellular cAMP accumulation; read-out: Human APJ cAMP EC50 Potency range

Row | Compound | EC50 [nM]
3 | CCCCc1nc(=O)c(S(=O)(=O)c2ccc(Br)cc2)c(O)n1[C@@H](COC)c1ccccc1 [Example 119, 5-(4-bromobenzenesulfonyl)-2-butyl-6-hydroxy-1-[(1R)-2-methoxy-1-phenylethyl]-1,4-dihydropyrimidin-4-one] | 10 to 100
4 | CCCCc1nc(=O)c(S(=O)(=O)c2ccc(Br)cc2)c(O)n1[C@H]1CCc2ccccc21 [Example 120, 5-(4-bromobenzenesulfonyl)-2-butyl-1-[(1S)-2,3-dihydro-1H-inden-1-yl]-6-hydroxy-1,4-dihydropyrimidin-4-one] | 10 to 100
5 | CCCCc1nc(=O)c(S(=O)(=O)c2ccc(Br)cc2)c(O)n1[C@H](C)c1cccc(C#N)c1 [Example 121, 3-[(1R)-1-[5-(4-bromobenzenesulfonyl)-2-butyl-6-hydroxy-4-oxo-1,4-dihydropyrimidin-1-yl]ethyl]benzonitrile] | 100 to 300
6 | CCCCc1nc(=O)c(S(=O)(=O)c2ccc(Br)cc2)c(O)n1[C@@H](C)c1cccc(C#N)c1 [Example 122, 3-[(1S)-1-[5-(4-bromobenzenesulfonyl)-2-butyl-6-hydroxy-4-oxo-1,4-dihydropyrimidin-1-yl]ethyl]benzonitrile] | 10 to 100
7 | COC[C@@H](c1ccccc1)n1c(CC2CC2)nc(=O)c(S(=O)(=O)c2ccc(Br)cc2)c1O [Example 123, 5-(4-bromobenzenesulfonyl)-2-(cyclopropylmethyl)-6-hydroxy-1-[(1R)-2-methoxy-1-phenylethyl]-1,4-dihydropyrimidin-4-one] | 100 to 300
8 | CCCCc1nc(=O)c(S(=O)(=O)c2ccc(Br)cc2)c(O)n1[C@@H](CC)c1cccc(OC)c1 [Example 124, 5-(4-bromobenzenesulfonyl)-2-butyl-6-hydroxy-1-[(1S)-1-(3-methoxyphenyl)propyl]-1,4-dihydropyrimidin-4-one] | 10 to 100
9 | CCCc1nc(=O)c(S(=O)(=O)c2ccc(Br)cc2)c(O)n1[C@@H](COC)c1ccccc1 [Example 125, 5-(4-bromobenzenesulfonyl)-6-hydroxy-1-[(1R)-2-methoxy-1-phenylethyl]-2-propyl-1,4-dihydropyrimidin-4-one] | 100 to 300
10 | CCCCc1nc(=O)c(S(=O)(=O)c2ccc(Br)cc2)c(O)n1[C@H](CC)c1ccccc1 [Example 126, 5-(4-bromobenzenesulfonyl)-2-butyl-6-hydroxy-1-[(1R)-1-phenylpropyl]-1,4-dihydropyrimidin-4-one] | 10 to 100
11 | CCCCc1nc(=O)c(S(=O)(=O)c2ccc(Br)cc2)c(O)n1[C@H](C)c1ccccc1 [Example 127, 5-(4-bromobenzenesulfonyl)-2-butyl-6-hydroxy-1-[(1R)-1-phenylethyl]-1,4-dihydropyrimidin-4-one] | 10 to 100
12 | CCCCc1nc(=O)c(S(=O)(=O)c2ccc(C)cc2)c(O)n1[C@@H](C)c1ccccc1 [Example 129, 2-butyl-6-hydroxy-5-(4-methylbenzenesulfonyl)-1-[(1S)-1-phenylethyl]-1,4-dihydropyrimidin-4-one] | 100 to 300
13 | CCCCc1nc(=O)c(S(=O)(=O)c2ccc(C)cc2)c(O)n1[C@H](C)c1ccccc1 [Example 130, 2-butyl-6-hydroxy-5-(4-methylbenzenesulfonyl)-1-[(1R)-1-phenylethyl]-1,4-dihydropyrimidin-4-one] | 10 to 100
14 | CCCCc1nc(=O)c(S(=O)(=O)c2ccc(-c3cncc(F)c3)cc2)c(O)n1[C@H](C)c1ccccc1 [Example 131, 2-butyl-5-[4-(5-fluoropyridin-3-yl)benzenesulfonyl]-6-hydroxy-1-[(1R)-1-phenylethyl]-1,4-dihydropyrimidin-4-one] | 10 to 100
15 | CCCCc1nc(=O)c(S(=O)(=O)c2ccc(-c3ccncc3C)cc2)c(O)n1[C@@H](CC)c1cccc(OC)c1 [Example 144, 2-butyl-6-hydroxy-1-[(1S)-1-(3-methoxyphenyl)propyl]-5-[4-(3-methylpyridin-4-yl)benzenesulfonyl]-1,4-dihydropyrimidin-4-one] | 0.01 to 10
16 | CCCCc1nc(=O)c(S(=O)(=O)c2ccc(-c3cncc(F)c3)cc2)c(O)n1[C@@H](CC)c1cccc(OC)c1 [Example 145, 2-butyl-5-[4-(5-fluoropyridin-3-yl)benzenesulfonyl]-6-hydroxy-1-[(1S)-1-(3-methoxyphenyl)propyl]-1,4-dihydropyrimidin-4-one] | 0.01 to 10
17 | CCCCc1nc(=O)c(S(=O)(=O)c2ccc(-c3ccc(F)nc3)cc2)c(O)n1[C@@H](CC)c1cccc(OC)c1 [Example 146, 2-butyl-5-[4-(6-fluoropyridin-3-yl)benzenesulfonyl]-6-hydroxy-1-[(1S)-1-(3-methoxyphenyl)propyl]-1,4-dihydropyrimidin-4-one] | 0.01 to 10
18 | CCCCc1nc(=O)c(S(=O)(=O)c2ccc(-c3ccc(OC)nc3C)cc2)c(O)n1[C@@H](COC)c1ccccc1 [Example 147, 2-butyl-6-hydroxy-1-[(1R)-2-methoxy-1-phenylethyl]-5-[4-(6-methoxy-2-methylpyridin-3-yl)benzenesulfonyl]-1,4-dihydropyrimidin-4-one] | 0.01 to 10
19 | CCCCc1nc(=O)c(S(=O)(=O)c2ccc(-c3ccnc(F)c3C)cc2)c(O)n1[C@@H](COC)c1ccccc1 [Example 148, 2-butyl-5-[4-(2-fluoro-3-methylpyridin-4-yl)benzenesulfonyl]-6-hydroxy-1-[(1R)-2-methoxy-1-phenylethyl]-1,4-dihydropyrimidin-4-one] | 0.01 to 10

The remaining lines, values ahead:

Row | EC50 [nM] | Compound
20 | 0.01 to 10 | CCCCc1nc(=O)c(S(=O)(=O)c2ccc(-c3cncc(F)c3)cc2)c(O)n1[C@@H](COC)c1ccccc1 [Example 132, 2-butyl-5-[4-(5-fluoropyridin-3-yl)benzenesulfonyl]-6-hydroxy-1-[(1R)-2-methoxy-1-phenylethyl]-1,4-dihydropyrimidin-4-one]
21 | 0.01 to 10 | CCCCc1nc(=O)c(S(=O)(=O)c2ccc(-c3ccc(F)nc3)cc2)c(O)n1[C@@H](COC)c1ccccc1 [Example 133, 2-butyl-5-[4-(6-fluoropyridin-3-yl)benzenesulfonyl]-6-hydroxy-1-[(1R)-2-methoxy-1-phenylethyl]-1,4-dihydropyrimidin-4-one]
22 | 0.01 to 10 | CCCCc1nc(=O)c(S(=O)(=O)c2ccc(-c3ccncc3C)cc2)c(O)n1[C@@H](COC)c1ccccc1 [Example 134, 2-butyl-6-hydroxy-1-[(1R)-2-methoxy-1-phenylethyl]-5-[4-(3-methylpyridin-4-yl)benzenesulfonyl]-1,4-dihydropyrimidin-4-one]
23 | 0.01 to 10 | CCCCc1nc(=O)c(S(=O)(=O)c2ccc(-c3ccc(F)nc3)cc2)c(O)n1[C@@H](C)c1ccccc1 [Example 135, 2-butyl-5-[4-(6-fluoropyridin-3-yl)benzenesulfonyl]-6-hydroxy-1-[(1S)-1-phenylethyl]-1,4-dihydropyrimidin-4-one]
24 | 0.01 to 10 | CCCCc1nc(=O)c(S(=O)(=O)c2ccc(-c3ccc(F)nc3)cc2)c(O)n1[C@H](C)c1ccccc1 [Example 136, 2-butyl-5-[4-(6-fluoropyridin-3-yl)benzenesulfonyl]-6-hydroxy-1-[(1R)-1-phenylethyl]-1,4-dihydropyrimidin-4-one]
25 | 0.01 to 10 | CCCCc1nc(=O)c(S(=O)(=O)c2ccc(C)cc2)c(O)n1[C@@H](COC)c1ccccc1 [Example 137, 2-butyl-6-hydroxy-1-[(1R)-2-methoxy-1-phenylethyl]-5-(4-methylbenzenesulfonyl)-1,4-dihydropyrimidin-4-one]
26 | 0.01 to 10 | CCCCc1nc(=O)c(S(=O)(=O)c2ccc(-c3ccncc3C)cc2)c(O)n1[C@@H](C)c1ccccc1 [Example 138, 2-butyl-6-hydroxy-5-[4-(3-methylpyridin-4-yl)benzenesulfonyl]-1-[(1S)-1-phenylethyl]-1,4-dihydropyrimidin-4-one]
27 | 0.01 to 10 | CCCCc1nc(=O)c(S(=O)(=O)c2ccc(-c3ccncc3C)cc2)c(O)n1[C@H](C)c1ccccc1 [Example 139, 2-butyl-6-hydroxy-5-[4-(3-methylpyridin-4-yl)benzenesulfonyl]-1-[(1R)-1-phenylethyl]-1,4-dihydropyrimidin-4-one]
28 | 0.01 to 10 | CCCCc1nc(=O)c(S(=O)(=O)c2ccc(-c3cncc(F)c3)cc2)c(O)n1[C@@H](C)c1cccc(C#N)c1 [Example 140, 3-[(1S)-1-{2-butyl-5-[4-(5-fluoropyridin-3-yl)benzenesulfonyl]-6-hydroxy-4-oxo-1,4-dihydropyrimidin-1-yl}ethyl]benzonitrile]
29 | 0.01 to 10 | CCCCc1nc(=O)c(S(=O)(=O)c2ccc(-c3ccc(F)nc3)cc2)c(O)n1[C@@H](C)c1cccc(C#N)c1 [Example 141, 3-[(1S)-1-{2-butyl-5-[4-(6-fluoropyridin-3-yl)benzenesulfonyl]-6-hydroxy-4-oxo-1,4-dihydropyrimidin-1-yl}ethyl]benzonitrile]
30 | 0.01 to 10 | CCCCc1nc(=O)c(S(=O)(=O)c2ccc(-c3ccncc3C)cc2)c(O)n1[C@@H](C)c1cccc(C#N)c1 [Example 142, 3-[(1S)-1-{2-butyl-6-hydroxy-5-[4-(3-methylpyridin-4-yl)benzenesulfonyl]-4-oxo-1,4-dihydropyrimidin-1-yl}ethyl]benzonitrile]
31 | 0.01 to 10 | CCCCc1nc(=O)c(S(=O)(=O)c2ccc(-c3ccncc3C)cc2)c(O)n1[C@H](CC)c1ccccc1 [Example 143, 2-butyl-6-hydroxy-5-[4-(3-methylpyridin-4-yl)benzenesulfonyl]-1-[(1R)-1-phenylpropyl]-1,4-dihydropyrimidin-4-one]
